According to ChEMBL document CHEMBL2016486, “Synthesis of [Tyr-5-Ψ(CH2NMe)-Tyr-6]RA-VII, a reduced peptide bond analogue of RA-VII, an antitumor bicyclic hexapeptide” (Bioorg Med Chem Lett, 2012):
Converted amounts (≈) assume the structure as drawn.

Tested on: P388
Assay: Cytotoxicity against mouse P388 cells
Format: functional, cell-based

For `COc1ccc(C[C@H]2C(=O)N[C@@H](C)C(=O)N(C)[C@H]3Cc4ccc(cc4)Oc4cc(ccc4OC)C[C@@H](C(=O)N[C@H](C)C(=O)N[C@@H](C)C(=O)N2C)N(C)C3=O)cc1`, the IC50 was 0.0043 µg/mL (≈ 0.00558 µM).
In the case of `COc1ccc(C[C@H]2C(=O)N[C@@H](C)C(=O)N(C)[C@H]3Cc4ccc(cc4)Oc4cc(ccc4OC)C[C@@H](C(=O)N[C@H](C)C(=O)N[C@@H](C)C(=O)N2C)N(C)C3)cc1`, the IC50 is reported as 5 µg/mL (≈ 6.61 µM).
